Molecular target: T1, Androgen receptor (Homo sapiens, UniProt P10275)
T1 sequence (P10275 whole entry): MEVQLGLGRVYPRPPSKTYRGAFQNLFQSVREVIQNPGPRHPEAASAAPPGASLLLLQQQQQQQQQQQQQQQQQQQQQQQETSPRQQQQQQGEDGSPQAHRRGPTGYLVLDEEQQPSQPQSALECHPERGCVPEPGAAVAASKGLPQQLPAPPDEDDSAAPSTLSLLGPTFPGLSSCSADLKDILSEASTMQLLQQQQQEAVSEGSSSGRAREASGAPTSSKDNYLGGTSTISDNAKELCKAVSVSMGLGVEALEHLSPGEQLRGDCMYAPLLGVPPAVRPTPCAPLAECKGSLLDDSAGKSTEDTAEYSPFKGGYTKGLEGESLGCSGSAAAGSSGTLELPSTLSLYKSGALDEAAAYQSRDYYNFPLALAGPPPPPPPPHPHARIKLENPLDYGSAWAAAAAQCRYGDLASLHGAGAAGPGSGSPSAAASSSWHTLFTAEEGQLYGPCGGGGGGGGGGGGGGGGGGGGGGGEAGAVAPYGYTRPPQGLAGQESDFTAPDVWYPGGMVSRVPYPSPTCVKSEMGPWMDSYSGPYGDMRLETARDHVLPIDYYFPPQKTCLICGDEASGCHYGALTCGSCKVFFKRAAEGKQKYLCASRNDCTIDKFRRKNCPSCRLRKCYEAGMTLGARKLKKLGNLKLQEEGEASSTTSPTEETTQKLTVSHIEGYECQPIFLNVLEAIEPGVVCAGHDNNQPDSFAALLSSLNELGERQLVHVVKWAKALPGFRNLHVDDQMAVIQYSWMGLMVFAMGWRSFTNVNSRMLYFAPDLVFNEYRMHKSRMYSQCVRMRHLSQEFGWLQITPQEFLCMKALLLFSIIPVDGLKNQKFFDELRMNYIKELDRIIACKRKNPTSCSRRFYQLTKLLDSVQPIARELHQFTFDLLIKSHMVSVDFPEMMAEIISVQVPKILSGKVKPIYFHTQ
Assay: Modulation of AR in human LNCAP cells transfected with PSA reporter gene assessed as inhibition of R1881-induced PSA luciferase activity pretreated for 1 hr followed by R1881 addition and measured after 24 hrs by luciferase assay
Format: cell-based

SMILES | IC50 [nM]
CC(C)(c1ccc(OCc2cnc(NS(C)(=O)=O)nc2)cc1)c1cc(Cl)c(OCCCl)c(C#N)c1 | < 500
CC(C)(c1ccc(OCc2nc(NS(C)(=O)=O)cs2)cc1)c1cc(Cl)c(OCCCl)c(C#N)c1 | < 500
CC(C)(c1ccc(OCc2cnc(NS(C)(=O)=O)o2)cc1)c1cc(Cl)c(OCCCl)c(C#N)c1 | < 500
CC(C)S(=O)(=O)c1nc(COc2ccc(C(C)(C)c3cc(Cl)c(OCCCl)c(C#N)c3)cc2)co1 | < 500
CC(C)(c1ccc(OCc2ccnc(NS(C)(=O)=O)n2)cc1)c1cc(F)c(OCCCl)c(Cl)c1 | 500
Cc1nc(NS(C)(=O)=O)nc(COc2ccc(C(C)(C)c3cc(Cl)c(OCCCl)c(C#N)c3)cc2)c1C | < 500
CC(C)S(=O)(=O)Nc1nc(COc2ccc(C(C)(C)c3cc(Cl)c(OCCCl)c(C#N)c3)cc2)co1 | 500
CSc1nc(C)c(COc2ccc(C(C)(C)c3cc(Cl)c(OCCCl)c(C#N)c3)cc2)o1 | < 500
CC(C)(c1ccc(OCc2ncc(NS(C)(=O)=O)s2)cc1)c1cc(Cl)c(OCCCl)c(C#N)c1 | < 500
Cc1cnc(NS(C)(=O)=O)nc1COc1ccc(C(C)(C)c2cc(Cl)c(OCCCl)c(C#N)c2)cc1 | < 500
CC(C)(c1ccc(OCc2ccnc(NS(C)(=O)=O)n2)cc1)c1cc(Cl)c(OCCCl)c(Cl)c1 | < 500
CC(C)(c1ccc(OCc2cnc(Cl)o2)cc1)c1cc(Cl)c(OCCCl)c(C#N)c1 | < 500
